Test results as given in ChEMBL document CHEMBL1201862, “PubChem BioAssay data set” (2004).
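Results reflect a 48-hour exposure of cells in 96-well plates to compound at five concentrations. The concentration for 50% growth inhibition is given as GI50.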 Activity calls are given as the source filed them. Rule as the data show it: active = GI50 up to about 1.1 µM and inactive = higher.

Key:
Assay in all cases: DTP human tumour cell line panel, 48 h
[1] = system: CCRF-CEM
[2] = system: SF-539
[3] = system: SK-MEL-28
[4] = system: OVCAR-5
[5] = system: MOLT-4
[6] = system: LOX IMVI
[7] = system: T47D
[8] = system: NCI-H226
[9] = system: UACC-62
[10] = system: SK-MEL-5
[11] = system: NCI-H23
[12] = system: Hs-578T
[13] = system: SN12C
[14] = system: SF-268
[15] = system: SF-295
[16] = system: OVCAR-3
[17] = system: U-251
[18] = system: PC-3
[19] = system: COLO 205
[20] = system: HCT-15
[21] = system: SW-620
[22] = system: A549
[23] = system: OVCAR-8
[24] = system: OVCAR-4
[25] = system: RXF 393
[26] = system: SNB-19
[27] = system: HT-29
[28] = system: KM12
[29] = system: UO-31
[30] = system: NCI-H522
[31] = system: EKVX
[32] = system: HCT-116
[33] = system: HOP-62
[34] = system: RPMI-8226
[35] = system: HOP-92
[36] = system: BT-549
[37] = system: SR
[38] = system: DU-145
[39] = system: K562
[40] = system: Malme-3M
[41] = system: MDA-MB-231
[42] = system: SK-MEL-2
[43] = system: A498
[44] = system: TK-10
[45] = system: M14
[46] = system: HL-60
[47] = system: MDA-N
[48] = system: NCI-H460
[49] = system: ACHN
[50] = system: CAKI-1
[51] = system: UACC-257
[52] = system: IGROV-1
[53] = system: MDA-MB-435
[54] = system: NCI/ADR-RES
[55] = system: SK-OV-3
[56] = system: 786-0

O=C1CCSCCC(=O)Nc2ccccc2N1
GI50 [1]: > 100 µM (inactive) | GI50 [2]: > 100 µM (inactive) | GI50 [3]: > 100 µM (inactive) | GI50 [4]: > 100 µM (inactive) | GI50 [5]: > 100 µM (inactive) | GI50 [6]: > 100 µM (inactive) | GI50 [7]: > 100 µM (inactive) | GI50 [8]: > 100 µM (inactive) | GI50 [9]: > 100 µM (inactive) | GI50 [10]: > 100 µM (inactive) | GI50 [11]: > 100 µM (inactive) | GI50 [12]: 88.3 µM (inactive) | GI50 [13]: > 100 µM (inactive) | GI50 [14]: > 100 µM (inactive) | GI50 [15]: > 100 µM (inactive) | GI50 [16]: > 100 µM (inactive) | GI50 [17]: > 100 µM (inactive) | GI50 [18]: > 100 µM (inactive) | GI50 [19]: > 100 µM (inactive) | GI50 [20]: > 100 µM | GI50 [21]: > 100 µM (inactive) | GI50 [22]: > 100 µM (inactive) | GI50 [23]: > 100 µM (inactive) | GI50 [24]: > 100 µM (inactive) | GI50 [25]: > 100 µM (inactive) | GI50 [26]: > 100 µM (inactive) | GI50 [27]: > 100 µM (inactive) | GI50 [28]: > 100 µM (inactive) | GI50 [29]: > 100 µM (inactive) | GI50 [30]: > 100 µM (inactive) | GI50 [31]: > 100 µM (inactive) | GI50 [32]: > 100 µM (inactive) | GI50 [33]: > 100 µM (inactive) | GI50 [34]: > 100 µM (inactive) | GI50 [35]: > 100 µM (inactive) | GI50 [36]: > 100 µM (inactive) | GI50 [37]: > 100 µM (inactive) | GI50 [38]: > 100 µM (inactive) | GI50 [39]: > 100 µM (inactive) | GI50 [40]: > 100 µM (inactive) | GI50 [41]: > 100 µM (inactive) | GI50 [42]: > 100 µM (inactive) | GI50 [43]: > 100 µM (inactive) | GI50 [44]: > 100 µM (inactive) | GI50 [45]: > 100 µM (inactive) | GI50 [46]: > 100 µM (inactive) | GI50 [47]: > 100 µM (inactive) | GI50 [48]: > 100 µM (inactive) | GI50 [49]: > 100 µM (inactive) | GI50 [50]: > 100 µM (inactive) | GI50 [51]: > 100 µM (inactive) | GI50 [52]: > 100 µM (inactive) | GI50 [53]: > 100 µM (inactive) | GI50 [54]: > 100 µM (inactive) | GI50 [55]: > 100 µM (inactive) | GI50 [56]: > 100 µM (inactive)
